Numbered stars: 1 amine (or outer) side, 2 acyl side, 3 side chain; on linkers, the order of the positions; unused ones are H or OH. Square brackets hold non-standard residues; d marks the D form. Side chains are listed from the residue outwards. Peptide text beside a SMILES is read from it. * marks the point of attachment. γGlu = O=C(O)[C@H](CCC(=O)[*:2])N[*:1]; Palmitoyl = CCCCCCCCCCCCCCCC(=O)*; Aib = CC(C)(N)C(=O)O
What follows are molecules tested against T1, human GIP receptor (Homo sapiens, UniProt P48546) (assay: cAMP response (HTRF) of HEK-293 cells stably expressing human GIP receptor). Conditions: Table 8; read-out: EC50 hGIP R.
T1 construct: expressed in transfected cells; host or cells: HEK-293
T1 sequence (P48546 22-466): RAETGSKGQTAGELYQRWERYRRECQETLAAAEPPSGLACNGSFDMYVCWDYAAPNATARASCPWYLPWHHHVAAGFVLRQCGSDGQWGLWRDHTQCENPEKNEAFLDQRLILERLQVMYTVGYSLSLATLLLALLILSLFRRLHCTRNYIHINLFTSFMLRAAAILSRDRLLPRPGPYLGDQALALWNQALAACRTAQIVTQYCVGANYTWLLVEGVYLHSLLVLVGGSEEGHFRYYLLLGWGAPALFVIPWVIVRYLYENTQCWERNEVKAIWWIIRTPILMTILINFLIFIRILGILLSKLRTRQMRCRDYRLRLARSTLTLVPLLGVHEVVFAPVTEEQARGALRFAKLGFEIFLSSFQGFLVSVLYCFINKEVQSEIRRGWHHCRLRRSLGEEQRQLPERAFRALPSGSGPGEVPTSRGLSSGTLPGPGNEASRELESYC
Type: cell-based
Protocol: Agonism of compounds for the receptors was determined by functional assays measuring cAMP response of HEK-293 cell lines stably expressing human GLP-1, GIP or glucagon receptor.
cAMP content of cells was determined using a kit from Cisbio Corp. (cat. no. 62AM4PEJ) based on HTRF (Homogenous Time Resolved Fluorescence). For preparation, cells were split into T175 culture flasks and grown overnight to near confluency in medium (DMEM/10% FBS). Medium was then removed and cells washed with PBS lacking calcium and magnesium, followed by proteinase treatment with accutase (Sigma-Aldrich cat. no. A6964). Detached cells were washed and resuspended in assay buffer (1×HBSS; 20 mM HEPES, 0.1% BSA, 2 mM IBMX) and cellular density determined. They were then diluted to 400000 cells/ml and 25 μl-aliquots dispensed into the wells of 96-well plates. For measurement, 25 μl of test compound in assay buffer was added to the wells, followed by incubation for 30 minutes at room temperature. After addition of HTRF reagents diluted in lysis buffer (kit components), the plates were incubated for 1 hr, followed by measurement of the fluorescence ratio at 665/616 nm. In vitro potency of agonists was quantified by determining the concentrations that caused 50% activation of maximal response (EC50).
Potencies of peptidic compounds at the GLP-1, glucagon and GIP receptors were determined by exposing cells expressing human glucagon receptor (hGlucagon R), human GIP receptor (hGIP-R) or human GLP-1 receptor (hGLP-1 R) to the listed compounds at increasing concentrations and measuring the formed cAMP as described in Methods.

Row | EC50 [pM] | SMILES
1 | 2.6 | CCCCCCCCCCCCCCCC(=O)N[C@@H](CCC(=O)N[C@@H](CCC(=O)NCCCC[C@H](NC(=O)[C@H](CC(C)C)NC(=O)[C@H](CCCCN)NC(=O)[C@H](CO)NC(=O)[C@H](CC(C)C)NC(=O)[C@H](CC(=O)O)NC(=O)[C@H](CO)NC(=O)[C@@H](NC(=O)[C@H](Cc1ccccc1)NC(=O)[C@@H](NC(=O)CNC(=O)[C@H](Cc1c[nH]cn1)NC(=O)C(C)(C)NC(=O)[C@@H](N)Cc1c[nH]cn1)[C@@H](C)O)[C@@H](C)O)C(=O)N[C@@H](CCC(=O)O)C(=O)N[C@@H](CCC(=O)O)C(=O)N[C@@H](CCC(N)=O)C(=O)N[C@@H](CCCNC(=N)N)C(=O)N[C@@H](CCC(N)=O)C(=O)N[C@@H](CCCCN)C(=O)N[C@@H](CCC(=O)O)C(=O)N[C@@H](Cc1ccccc1)C(=O)N[C@H](C(=O)N[C@@H](CCC(=O)O)C(=O)N[C@@H](Cc1c[nH]c2ccccc12)C(=O)N[C@@H](CC(C)C)C(=O)N[C@@H](CCCCN)C(=O)N[C@@H](C)C(=O)N[C@H](C)C(=O)NCC(=O)N[C@@H](Cc1c[nH]cn1)C(=O)N1CCC[C@H]1C(=O)N[C@@H](CO)C(=O)NC(C)(C)C(=O)N[C@@H](CCCCN)C(=O)N1CCC[C@H]1C(=O)N1CCC[C@H]1C(=O)N1CCC[C@H]1C(=O)N[C@@H](CCCCN)C(N)=O)[C@@H](C)CC)C(=O)O)C(=O)O [SEQ ID NO: 7, H-Aib-H-G-T-F-T-S-D-L-S-K-L-K[gGlu-gGlu-Palm]-E-E-Q-R-Q-K-E-F-I-E-W-L-K-A-dAla-G-H-P-S-Aib-K-P-P-P-K-NH2] (H-H[Aib]HGTFTSDLSKLK([γGlu-γGlu-Palmitoyl])EEQRQKEFIEWLKA[dA]GHPS[Aib]KPPPK-NH2)
2 | 2.6 | CCCCCCCCCCCCCCCC(=O)N[C@@H](CCC(=O)N[C@@H](CCC(=O)NCCCC[C@H](NC(=O)[C@H](CC(C)C)NC(=O)[C@H](CCCCN)NC(=O)[C@H](CO)NC(=O)[C@H](CC(C)C)NC(=O)[C@H](CC(=O)O)NC(=O)[C@H](CO)NC(=O)[C@@H](NC(=O)[C@H](Cc1ccccc1)NC(=O)[C@@H](NC(=O)CNC(=O)[C@H](Cc1c[nH]cn1)NC(=O)C(C)(C)NC(=O)[C@@H](N)Cc1c[nH]cn1)[C@@H](C)O)[C@@H](C)O)C(=O)N[C@@H](CCC(=O)O)C(=O)N[C@@H](CCC(=O)O)C(=O)N[C@@H](CCC(N)=O)C(=O)N[C@@H](CCCNC(=N)N)C(=O)N[C@@H](CCC(N)=O)C(=O)N[C@@H](CCCCN)C(=O)N[C@@H](CCC(=O)O)C(=O)N[C@@H](Cc1ccccc1)C(=O)N[C@H](C(=O)N[C@@H](CCC(=O)O)C(=O)N[C@@H](Cc1c[nH]c2ccccc12)C(=O)N[C@@H](CC(C)C)C(=O)N[C@@H](CCCCN)C(=O)N[C@@H](C)C(=O)N[C@H](C)C(=O)NCC(=O)N1CCC[C@H]1C(=O)N1CCC[C@H]1C(=O)N[C@@H](CO)C(=O)NC(C)(C)C(=O)N[C@@H](CCCCN)C(=O)N1CCC[C@H]1C(=O)N1CCC[C@H]1C(=O)N1CCC[C@H]1C(=O)N[C@@H](CCCCN)C(N)=O)[C@@H](C)CC)C(=O)O)C(=O)O [SEQ ID NO: 9, H-Aib-H-G-T-F-T-S-D-L-S-K-L-K[gGlu-gGlu-Palm]-E-E-Q-R-Q-K-E-F-I-E-W-L-K-A-dAla-G-P-P-S-Aib-K-P-P-P-K-NH2] (H-H[Aib]HGTFTSDLSKLK([γGlu-γGlu-Palmitoyl])EEQRQKEFIEWLKA[dA]GPPS[Aib]KPPPK-NH2)
3 | 1.1 | CCCCCCCCCCCCCCCC(=O)N[C@@H](CCC(=O)N[C@@H](CCC(=O)NCCCC[C@H](NC(=O)[C@H](CC(C)C)NC(=O)[C@H](CCCCN)NC(=O)[C@H](CO)NC(=O)[C@H](CC(C)C)NC(=O)[C@H](CC(=O)O)NC(=O)[C@H](CO)NC(=O)[C@@H](NC(=O)[C@H](Cc1ccccc1)NC(=O)[C@@H](NC(=O)CNC(=O)[C@H](Cc1c[nH]cn1)NC(=O)C(C)(C)NC(=O)[C@@H](N)Cc1c[nH]cn1)[C@@H](C)O)[C@@H](C)O)C(=O)N[C@@H](CCC(=O)O)C(=O)N[C@@H](CCC(=O)O)C(=O)N[C@@H](CCC(N)=O)C(=O)N[C@@H](CCCNC(=N)N)C(=O)N[C@@H](CCC(N)=O)C(=O)NC(C)(C)C(=O)N[C@@H](CCC(=O)O)C(=O)N[C@@H](Cc1ccccc1)C(=O)N[C@H](C(=O)N[C@@H](CCC(=O)O)C(=O)N[C@@H](Cc1c[nH]c2ccccc12)C(=O)N[C@@H](CC(C)C)C(=O)N[C@@H](CCCCN)C(=O)N[C@@H](C)C(=O)NCC(=O)NCC(=O)N1CCC[C@H]1C(=O)N1CCC[C@H]1C(=O)N[C@@H](CO)C(=O)NC(C)(C)C(=O)N[C@@H](CCCCN)C(=O)N1CCC[C@H]1C(=O)N1CCC[C@H]1C(=O)N1CCC[C@H]1C(=O)N[C@@H](CCCCN)C(N)=O)[C@@H](C)CC)C(=O)O)C(=O)O [SEQ ID NO: 10, H-Aib-H-G-T-F-T-S-D-L-S-K-L-K[gGlu-gGlu-Palm]-E-E-Q-R-Q-Aib-E-F-I-E-W-L-K-A-G-G-P-P-S-Aib-K-P-P-P-K-NH2]
4 | 1.9 | CCCCCCCCCCCCCCCC(=O)N[C@@H](CCC(=O)N[C@@H](CCC(=O)NCCCC[C@H](NC(=O)[C@H](CC(C)C)NC(=O)[C@H](CCCCN)NC(=O)[C@H](CO)NC(=O)[C@H](CC(C)C)NC(=O)[C@H](CC(=O)O)NC(=O)[C@H](CO)NC(=O)[C@@H](NC(=O)[C@H](Cc1ccccc1)NC(=O)[C@@H](NC(=O)CNC(=O)[C@H](Cc1c[nH]cn1)NC(=O)C(C)(C)NC(=O)[C@@H](N)Cc1c[nH]cn1)[C@@H](C)O)[C@@H](C)O)C(=O)N[C@@H](CCC(=O)O)C(=O)N[C@@H](CCC(=O)O)C(=O)N[C@@H](CCC(N)=O)C(=O)N[C@@H](CCCNC(=N)N)C(=O)N[C@@H](CCC(N)=O)C(=O)NC(C)(C)C(=O)N[C@@H](CCC(=O)O)C(=O)N[C@@H](Cc1ccccc1)C(=O)N[C@H](C(=O)N[C@@H](CCC(=O)O)C(=O)N[C@@H](Cc1c[nH]c2ccccc12)C(=O)N[C@@H](CC(C)C)C(=O)N[C@@H](CCCCN)C(=O)N[C@@H](C)C(=O)NCC(=O)NCC(=O)N[C@@H](Cc1c[nH]cn1)C(=O)N1CCC[C@H]1C(=O)N[C@@H](CO)C(=O)NC(C)(C)C(=O)N[C@@H](CCCCN)C(=O)N1CCC[C@H]1C(=O)N1CCC[C@H]1C(=O)N1CCC[C@H]1C(=O)N[C@@H](CCCCN)C(N)=O)[C@@H](C)CC)C(=O)O)C(=O)O [SEQ ID NO: 12, H-Aib-H-G-T-F-T-S-D-L-S-K-L-K[gGlu-gGlu-Palm]-E-E-Q-R-Q-Aib-E-F-I-E-W-L-K-A-G-G-H-P-S-Aib-K-P-P-P-K-NH2]

Reference: patent US10538567B2, “Compounds as peptidic trigonal GLP1/glucagon/GIP receptor agonists” (priority 2016, dated 2020)
